Where two headings read alike, the source gives them in different places.
Legend:
TNFα = assay: cells; assay type: cell-based, human; details: LPS-stimulated human monocytes, read-out: EC50 TNF
Description: IRAK4 Monocyte TNFα Cell Based Assay Procedure:
The cell suspension was then plated at a density of 5,000 cells/well onto black 384 well Greiner clear bottom plates. Plates were pre-spotted with test compounds and serially diluted in DMSO where 200 nL/well were delivered using the Echo 550 acoustic liquid dispenser (Labcyte®) for a final DMSO concentration of 0.5%. Plated cells were treated with compound for 1 hour at 37° C. Cells were then stimulated with 50 pg/ml of LPS (Sigma) excluding outside columns of plate used for unstimulated cell control wells. Cells were incubated for an additional 4 hours at 37° C. Cells were then spun out of the media and 5 μl of sample were taken and analyzed for total TNFα content using the TR-FRET Human TNFα detection system (CisBio). This system utilizes two labeled antibodies (cryptate and XL665) that bind to two different epitopes of the TNFα molecule and produce FRET signal proportional to the concentration of TNFα in the sample. Detection antibodies are mixed 50:50 and 5 μL were dispensed into each well. Plates were covered with clear seals and incubated at room temp overnight. […] Percent of control was calculated as follows: % Control=100×(RatioSample−Ratio0% stimulation)/(Ratio100% Stimulation−Ratio0% Stimulation) where unstimulated cells (0% stimulation) were the negative control and stimulated cells (100% stimulation) were used as the positive control.

IRAK4 enzyme = IRAK4 enzyme (Homo sapiens (Human), UniProt Q9NWZ3); assay: biochemical; assay type: biochemical; details: IRAK4 enzyme, 500 μM ATP
[1] = Homo sapiens, Monocyte, TNFα content
[2] = Homo sapiens, Monocyte, TNFα by TR-FRET

Chain of IRAK4 enzyme (Q9NWZ3 whole entry): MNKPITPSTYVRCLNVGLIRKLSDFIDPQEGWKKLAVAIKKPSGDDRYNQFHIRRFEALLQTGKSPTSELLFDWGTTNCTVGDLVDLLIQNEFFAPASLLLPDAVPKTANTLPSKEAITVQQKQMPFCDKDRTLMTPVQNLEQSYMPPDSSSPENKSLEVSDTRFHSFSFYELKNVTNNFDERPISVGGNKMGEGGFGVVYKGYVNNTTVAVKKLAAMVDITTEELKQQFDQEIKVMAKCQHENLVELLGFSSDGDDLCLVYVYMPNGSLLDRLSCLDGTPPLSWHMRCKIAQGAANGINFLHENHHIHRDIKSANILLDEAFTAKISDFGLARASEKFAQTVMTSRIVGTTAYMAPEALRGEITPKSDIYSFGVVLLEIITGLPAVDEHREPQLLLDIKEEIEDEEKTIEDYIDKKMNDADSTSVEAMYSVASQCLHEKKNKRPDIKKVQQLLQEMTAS

| SMILES | EC50 (TNFα; [1]) | IC50 (IRAK4 enzyme; TR-FRET (HTRF)) | IC50 (IRAK4 enzyme; TR-FRET) | EC50 (TNFα; [2]) | EC50 (TNFα; TNFα content) |
| --- | --- | --- | --- | --- | --- |
| CCNC(=O)C12CCC(Nc3cc(-c4ccc5cc(C#N)cnn45)ncc3C(=O)NC[C@@H](F)C(C)(C)O)(CC1)CC2 [Example 407, (R)-6-(3-cyanopyrrolo[1,2-b]pyridazin-7-yl)-4-((4-(ethyl-carbamoyl)bicyclo[2.2.2]octan-1-yl)amino)-N-(2-fluoro-3-hydroxy-3-methylbutyl)nicotinamide] | 20 nM | 2 nM | – | – | – |
| CN(C)C(=O)NC12CCC(Nc3cc(-c4ccc5cc(C#N)cnn45)ncc3C(=O)NC[C@@H](F)C(C)(C)O)(CC1)CC2 [Example 272, (R)-6-(3-cyanopyrrolo[1,2-b]pyridazin-7-yl)-4-((4-(3,3-dimethylureido)bicyclo[2.2.2]octan-1-yl)amino)-N-(2-fluoro-3-hydroxy-3-methylbutyl)nicotinamide] | 23 nM | – | 1 nM | – | – |
| CC(C)(O)[C@H](F)CNC(=O)c1cnc(-c2ccc3cc(C#N)cnn23)cc1Nc1cnc2c(c1)OCCO2 [Example 850, (R)-6-(3-cyanopyrrolo[1,2-b]pyridazin-7-yl)-4-((2,3-dihydro-[1,4]dioxino[2,3-b]pyridin-7-yl)amino)-N-(2-fluoro-3-hydroxy-3-methylbutyl)nicotinamide] | – | – | < 1 nM | 10 nM | – |
| CC(C)Nc1cc(-c2ccc3cc(C#N)cnn23)ncc1C(=O)NC1CCS(=O)(=O)C1 (stereo not shown) [Example 123, 6-(3-cyanopyrrolo[1,2-b]pyridazin-7-yl)-N-(1,1-dioxidotetrahydrothiophen-3-yl)-4-(isopropylamino) nicotinamide] | 421 nM | – | 6 nM | – | – |
| COC(=O)c1ccc(Nc2cc(-c3ccc4cc(C#N)cnn34)ncc2C(=O)NC[C@@H](F)C(C)(C)O)cc1OC [Example 564, (R)-methyl 4-((2-(3-cyano-pyrrolo[1,2-b]pyridazin-7-yl)-5-((2-fluoro-3-hydroxy-3-methylbutyl)carbamoyl)pyridin-4-yl)amino)-2-methoxybenzoate] | 315 nM | 23 nM | – | – | – |
| CC(C)(O)[C@H](F)CNC(=O)c1cnc(-c2ccc3cc(C#N)cnn23)cc1Nc1nc(Cc2ccccc2)cs1 [Example 337, (R)-4-((4-benzylthiazol-2-yl)amino)-6-(3-cyanopyrrolo[1,2-b]pyridazin-7-yl)-N-(2-fluoro-3-hydroxy-3-methylbutyl)nicotinamide] | 73 nM | – | 5 nM | – | – |
| COC(=O)NC12CCC(Nc3cc(-c4ccc5cc(C#N)cnn45)ncc3C(=O)NC3CCC(NC(=O)C4CC4)CC3)(CC1)CC2 (stereo not shown) [Example 271, methyl (4-((2-(3-cyano-pyrrolo[1,2-b]pyridazin-7-yl)-5-((4-(cyclopropane-carboxamido)cyclohexyl)carbamoyl)pyridin-4-yl)amino)bicyclo[2.2.2]octan-1-yl)carbamate] | 38 nM | – | 1 nM | – | – |
| N#Cc1cnn2c(-c3cc(N[C@H]4CCC[C@@H](O)C4)c(C(=O)NC4(C#N)CC4)cn3)ccc2c1 [Example 513, N-(1-cyanocyclopropyl)-6-(3-cyanopyrrolo[1,2-b]pyridazin-7-yl)-4-(((1S,3R)-3-hydroxy-cyclohexyl)amino) nicotinamide] | 110 nM | 2 nM | – | – | – |
| COC(=O)NCC1(O)CC(Nc2cc(-c3ccc4cc(C#N)cnn34)ncc2C(=O)NC[C@@H](F)C(C)(C)O)C1 (single isomer, unassigned) [Example 759] | – | 3 nM | – | – | > 10000 nM |
| CC(=O)N1C[C@H]2C[C@H](Nc3cc(-c4ccc5cc(C#N)cnn45)ncc3C(=O)NC[C@@H](F)C(C)(C)O)C[C@H]2C1 [Example 249, 4-(((3aR,5s,6aS)-2-acetyl-octahydrocyclopenta[c]pyrrol-5-yl)amino)-6-(3-cyanopyrrolo[1,2-b]pyridazin-7-yl)-N-((R)-2-fluoro-3-hydroxy-3-methylbutyl) nicotinamide] | 100 nM | – | 2 nM | – | – |
| CC(C)Nc1cc(-c2ccc3cc(C#N)cnn23)ncc1C(=O)NNCC(C)(C)O [Example 69, 6-(3-cyanopyrrolo[1,2-b]pyridazin-7-yl)-N′-(2-hydroxy-2-methylpropyl)-4-(isopropylamino) nicotinohydrazide] | 515 nM | – | 7 nM | – | – |
| CC(C)(C)Nc1cc(-c2ccc3cc(C#N)cnn23)ncc1C(=O)NC[C@@H](F)C(C)(C)O [Example 33, (R)-4-(tert-butylamino)-6-(3-cyanopyrrolo[1,2-b]pyridazin-7-yl)-N-(2-fluoro-3-hydroxy-3-methylbutyl)nicotinamide] | 29 nM | – | < 1 nM | – | – |
| N#Cc1cnn2c(-c3cc(NC45CCC(O)(CC4)CC5)c(C(=O)NCc4cccnc4)cn3)ccc2c1 [Example 931, 6-(3-cyanopyrrolo[1,2-b]pyridazin-7-yl)-4-((4-hydroxybicyclo[2.2.2]octan-1-yl)amino)-N-(pyridin-3-ylmethyl) nicotinamide] | – | – | 3 nM | 163 nM | – |
| CNC(=O)c1cnc(-c2ccc3cc(C#N)cnn23)cc1N[C@@H]1CC[C@@H](C(=O)NC)C1 [Example 466, 6-(3-cyanopyrrolo[1,2-b]pyridazin-7-yl)-N-methyl-4-(((1R,3R)-3-(methyl-carbamoyl)cyclopentyl)amino)nicotinamide] | 259 nM | 8 nM | – | – | – |
| CC(C)(O)[C@H](F)CNC(=O)c1cnc(-c2ccc3cc(C#N)cnn23)cc1NC12CCC(N)(CC1)CC2 [Example 318, (R)-4-((4-amino-bicyclo[2.2.2]octan-1-yl)amino)-6-(3-cyano-pyrrolo[1,2-b]pyridazin-7-yl)-N-(2-fluoro-3-hydroxy-3-methylbutyl)nicotinamide] | 23 nM | – | < 1 nM | – | – |
| CC(C)(O)[C@H](F)CNC(=O)c1cnc(-c2ccc3cc(C#N)cnn23)cc1Nc1cnn(C(F)F)c1 [Example 48, (R)-6-(3-cyanopyrrolo[1,2-b]pyridazin-7-yl)-4-((1-(difluoromethyl)-1H-pyrazol-4-yl)amino)-N-(2-fluoro-3-hydroxy-3-methylbutyl)nicotinamide] | 28 nM | – | < 1 nM | – | – |
| CC(=O)N[C@@H]1CC[C@@H](Nc2cc(-c3ccc4cc(C#N)cnn34)ncc2C(=O)NC[C@@H](F)C(C)(C)O)C1 [Example 306, 4-(((1R,3R)-3-acetamidocyclopentyl)amino)-6-(3-cyano-pyrrolo[1,2-b]pyridazin-7-yl)-N-((R)-2-fluoro-3-hydroxy-3-methylbutyl) nicotinamide] | 453 nM | – | 3 nM | – | – |
| N#Cc1cnn2c(-c3cc(NC45CCC(O)(CC4)CC5)c(C(=O)NCCC(=O)N4CC(F)(F)C4)cn3)ccc2c1 [Example 805, 6-(3-cyanopyrrolo[1,2-b]pyridazin-7-yl)-N-(3-(3,3-difluoroazetidin-1-yl)-3-oxopropyl)-4-((4-hydroxybicyclo[2.2.2]octan-1-yl)amino) nicotinamide] | – | – | < 1 nM | 129 nM | – |
| CC(C)(O)[C@H](F)CNC(=O)c1cnc(-c2ccc3cc(C#N)cnn23)cc1N[C@H]1CC[C@H](CN)CC1 [Example 558, 4-(((1r,4R)-4-(amino-methyl)cyclohexyl)amino)-6-(3-cyano-pyrrolo[1,2-b]pyridazin-7-yl)-N-((R)-2-fluoro-3-hydroxy-3-methylbutyl) nicotinamide] | 190 nM | < 1 nM | – | – | – |
| N#Cc1cnn2c(-c3cc(NC45CCC(O)(CC4)CC5)c(C(=O)NCc4ccccn4)cn3)ccc2c1 [Example 930, 6-(3-cyanopyrrolo[1,2-b]pyridazin-7-yl)-4-((4-hydroxybicyclo[2.2.2]octan-1-yl)amino)-N-(pyridin-2-ylmethyl)nicotinamide] | – | – | 2 nM | 147 nM | – |
| CN(C)C(=O)C12CCC(Nc3cc(-c4ccc5cc(C#N)cnn45)ncc3C(=O)NC[C@@H](F)C(C)(C)O)(CC1)CC2 [Example 415, (R)-6-(3-cyanopyrrolo[1,2-b]pyridazin-7-yl)-4-((4-(dimethylcarbamoyl)bicyclo[2.2.2]octan-1-yl)amino)-N-(2-fluoro-3-hydroxy-3-methyl-butyl)nicotinamide] | 14 nM | 1 nM | – | – | – |
| [2H]C([2H])([2H])NC(=O)c1cnc(-c2ccc3cc(C#N)cnn23)cc1NC12CCC(O)(CC1)CC2 [Example 358, 6-(3-cyanopyrrolo[1,2-b]pyridazin-7-yl)-4-((4-hydroxybicyclo[2.2.2]octan-1-yl)amino)-N-(methyl-d3)nicotinamide] | 122 nM | – | 3 nM | – | – |
| CNC(=O)c1cnc(-c2ccc3cc(C#N)cnn23)cc1N[C@H]1C[C@@H](C(=O)NC)C1 [Example 471, 6-(3-cyanopyrrolo[1,2-b]pyridazin-7-yl)-N-methyl-4-(((1s,3s)-3-(methylcarbamoyl)cyclobutyl)amino) nicotinamide] | 74 nM | 9 nM | – | – | – |
| CC(C)(O)[C@H](F)CNC(=O)c1cnc(-c2ccc3cc(C#N)cnn23)cc1Nc1cccnn1 [Example 588, (R)-6-(3-cyanopyrrolo[1,2-b]pyridazin-7-yl)-N-(2-fluoro-3-hydroxy-3-methylbutyl)-4-(pyridazin-3-ylamino)nicotinamide] | 412 nM | 3 nM | – | – | – |
| CCOC(=O)NC[C@H]1C[C@H](Nc2cc(-c3ccc4cc(C#N)cnn34)ncc2C(=O)NC[C@@H](F)C(C)(C)O)C1 [Example 540, ethyl (((1R,3r)-3-((2-(3-cyanopyrrolo[1,2-b]pyridazin-7-yl)-5-(((R)-2-fluoro-3-hydroxy-3-methylbutyl)carbamoyl)pyridin-4-yl)amino)cyclo-butyl)methyl)carbamate] | 12 nM | < 1 nM | – | – | – |
| CC(C)(O)[C@H](F)CNC(=O)c1cnc(-c2ccc3cc(C#N)cnn23)cc1NC12CC(CNC(=O)C3CC3(F)F)(C1)C2 (stereo partly drawn) [Example 833, 6-(3-cyanopyrrolo[1,2-b]pyridazin-7-yl)-4-((3-(((R)-2,2-difluorocyclo-propane-1-carboxamido)methyl)bicyclo[1.1.1]pentan-1-yl)amino)-N-((R)-2-fluoro-3-hydroxy-3-methylbutyl)nicotinamide] | – | – | 1 nM | 192 nM | – |

Reference: patent publication US10336762B2 (priority 2017, dated 2019)
